“Also recorded” adds a separate entry of the source. Where two headings read alike, the source gives them in different places.
Experiments:
HepG2 cells [1] = assay: cAMP accumulation in HepG2 cells; type: cell-based, human; details: β-agonists at 10 μM
Description: cAMP Accumulation. HepG2 cells were seeded in 96-well plates and grown to confluency. […] The levels of cAMP accumulated in cells were determined and normalized to the amount of protein per well.

1321N1 cells = assay: Mitogenesis / [3H]-thymidine incorporation in 1321N1 cells; type: cell-based, human; details: compound alone
Description: (§1) Maintenance and Treatment of Cell Lines. Human HepG2 hepatocarcinoma cells and human U87MG glioma cells (ATCC, Manassas, Va.) were maintained in EMEM medium supplemented with 1% L-glutamine, 1% sodium pyruvate, 1% penicillin/streptomycin, and 10% FBS (Hyclone, Logan, Utah). The human 1321N1 astrocytoma cells (European Collection of Cell Cultures, Sigma-Aldrich) were cultured in Dulbecco's modified Eagle's medium supplemented with 10% FBS and penicillin/streptomycin. All cell lines were cultured at 37° C. in 5% CO2, and the medium was replaced every 2-3 days.
(§2) [^3H]-Thymidine Incorporation Assay. Cells were seeded in 12-well plates at approximately 50,000 cells/well and incubated at 37° C. After 24 hours, the wells were rinsed with PBS and replaced with serum-free medium containing the appropriate concentration of the test compounds. After another 24-hour incubation at 37° C., 1 μCi of [^3H]-thymidine was added to each well and incubated at 37° C. for 16 hours. [^3H]-Thymidine incorporation into DNA was monitored after the cells were washed twice with PBS and then lysed in 600 μL of 0.1N NaOH for 30 minutes with shaking. The lysate was then mixed with 3 mL of liquid scintillation cocktail (Beckman Coulter, Inc., Brea, Calif.), and radioactivity was measured by liquid scintillation counting using Beckman Coulter LS6000IC Scintillation Counter. Data are shown as CPM incorporated compared to the control cells.

HepG2 cells [2] = assay: Apoptosis assay (annexin V/PI flow cytometry) in HepG2 cells; type: cell-based, human; details: HepG2, 1 μM, 24 hours
Description: Apoptosis Assay. The degree of apoptosis induced by drug treatment was assayed by flow cytometry using the Alexa Fluor® 488 annexin V/Dead Cell Apoptosis Kit (Invitrogen) following the standard manufacturer's protocol. […] Cells were subsequently harvested after a 24-hour incubation, washed in cold PBS, and resuspended in 100 μL of 1× annexin-binding buffer to maintain a density˜1×10^6 cells/mL, after which 5 μL Alexa Fluor® 488 annexin V and 1 μL 100 μg/mL propidium iodide were added to the cell suspensions. Cells were then incubated at room temperature for 15 minutes and 400 μL 1× annexin-binding buffer was added followed by gentle mixing. Stained cells were analyzed on a BDFACSCanto II flow cytometer.

HepG2 cells [3] = assay: [3H]-Thymidine incorporation assay in HepG2 cells; type: cell-based, human
Description: as §1
as §2, with “Cells” for “[^3H]-Thymidine Incorporation Assay. Cells”

HepG2 cells [4] = assay: Cell cycle analysis by flow cytometry in HepG2 cells; type: cell-based, human; details: HepG2, 1 μM, up to 24 hours
Description: Cell Cycle Analysis. Cell cycle distributions were performed by flow cytometry on propidium iodide-stained nuclei prepared by the NIM technique. DNA histograms of at least 10,000 cells acquired on a Becton-Dickinson FACScanto II (BD Biosciences, San Jose, Calif.) were deconvoluted using the Multicycle program (Phoenix Flow Systems) for estimates of the percentage of cells in the G0/1, S, and G2+M phases of the cell cycle. Debris and doublets were removed from the analysis by software algorithms.

U87MG cells = assay: [3H]-Thymidine incorporation in U87MG cells; type: cell-based, human; details: compound alone
Description: as §1
as §2, with “Cells” for “[^3H]-Thymidine Incorporation Assay. Cells”

Akt and ERK1/2 = assay: phosphorylation of Akt and ERK1/2 in HepG2 cells (Western blot); type: cell-based, human; details: 1 μM, 5, 10 and 30 minutes
Description: Western Blotting. Cells were lysed with RIPA buffer containing EGTA and EDTA (Boston BioProducts, Ashland, Mass.). The lysis buffer was mixed with a protease inhibitor cocktail (Sigma-Aldrich). Protein concentrations were measured using the bicinchoninic acid reagent (Thermo-Pierce Biotechnology, Inc., Rockford, Ill.). […] Western blots were performed according to standard methods. The visualization of immunoreactive bands was performed using the ECL Plus Western Blotting Detection System (GE Healthcare, NJ) and their quantification was done by volume densitometry using Image J software and normalization to β-actin. […] The antibodies were used at a dilution recommended by the manufacturer.

HCT116 [5] = assay: tumor cell growth (CTG), HCT116
LN229 = assay: [3H]-Thymidine incorporation in 96-well plates (Thy), LN229; details: read-out: IC50 (uM), LN229 (CNS Cancer)
PANC-1 = assay: tumor cell growth, PANC-1; details: Table 6
PC3 [6] = assay: tumor cell growth (CTG), PC3
U118 = assay: tumor cell growth, U118; details: read-out: IC50 (uM), U118 (CNS); Table 6
HT29 [7] = assay: Thymidine (Thy) 96 well, HT29; details: read-out: IC50 (uM), HT29 (Colon Cancer)
LN-229 = assay: tumor cell growth (CTG), LN-229 / LN229
HEP3B [8] = assay: [3H]-Thymidine incorporation in 96-well plates (Thy), HEP3B; details: read-out: IC50 (uM), HEP3B (Liver Cancer)
MDAMB231 = assay: tumor cell growth, MDAMB231; details: Table 6
HT29 [9] = assay: tumor cell growth (CTG), HT29
PC3 [10] = assay: [3H]-Thymidine incorporation in 96-well plates (Thy), PC3; details: read-out: IC50 (uM), PC3 (Prostrate Cancer)
CAPAN = assay: tumor cell growth, CAPAN; details: Table 6
MCF7 = assay: tumor cell growth, MCF7; details: Table 6
GL261 = assay: tumor cell growth, GL261; details: Table 6
H460 = assay: tumor cell growth (CTG), H460 / NCIH460
HCT116 [11] = assay: Thymidine (Thy) 96 well, HCT116; details: read-out: IC50 (uM), HCT116 (Colon Cancer)
NCIH460 = assay: Thymidine (Thy) 96 well, NCIH460; details: read-out: IC50 (uM), NCIH460 (NSCLC)
HEPG2 = assay: tumor cell growth, HEPG2; details: Table 6
A549 = assay: tumor cell growth, A549; details: read-out: IC50 (uM), A549 (NSCLC); Table 6
HEP3B [12] = assay: tumor cell growth (CTG), HEP3B
LN-18 = assay: tumor cell growth, LN-18; details: Table 6
U87 = assay: tumor cell growth, U87; details: Table 6
U251 = assay: tumor cell growth, U251; details: Table 6
Du-145 = assay: tumor cell growth, Du-145; details: read-out: IC50 (uM), Du-145 (Prostate C); Table 6
A172 = assay: tumor cell growth, A172; details: Table 6

## C[C@H](Cc1ccc(O)cc1)NC[C@H](O)c1cc(O)cc(O)c1 [(R,R′)-Fen, (R,R′)-Fenoterol]
HepG2 cells [1]
  cAMP production: Neither (R)-isoproterenol nor (R,R′)-Fen, at 10 μM, elicited an increase in cAMP production
1321N1 cells
  effect on proliferation / [3H]-thymidine incorporation: reduced proliferation in 1321N1 cells
HepG2 cells [2]
  apoptosis compared to control: markedly reduced apoptosis
HepG2 cells [3]; 1 μM, 24 h
  % Change in HepG2 cells ([3H]-thymidine incorporation): 51.3%
HepG2 cells [3]; Homo sapiens, HepG2, read-out: IC50/EC50 (μM): EC50 (ED50) for increase in [3H]-thymidine incorporation
  EC50: 1.17 ± 0.37 µM
HepG2 cells [4]
  cell cycle / sub-G1 events: no significant alterations of the cell cycle; also recorded: No significant increase in sub-G1 events
U87MG cells
  effect on cellular proliferation: had no effect
Akt and ERK1/2
  Akt and ERK activation: induced a time-dependent increase in Akt and ERK activation

## COc1ccc(C[C@@H](C)NC[C@H](O)c2cc(O)cc(O)c2)cc1 [RR-MF, (R,R′)-4-methoxyfenoterol]
HCT116 [5]; read-out: IC50 (uM), HCT116 (Colon C), Table 6
  IC50: > 50 µM
HCT116 [5]; read-out: IC50 (uM), HCT116 (Colon Cancer), 96 well CTG 1 day treatment
  IC50: > 50 µM
HCT116 [5]; read-out: IC50 (uM), HCT116 (Colon Cancer), 96 well CTG 2 days treatment
  IC50: > 50 µM
HCT116 [5]; read-out: IC50 (uM), HCT116 (Colon Cancer), 384well CTG 3 days treatment −1
  IC50: > 50 µM
HCT116 [5]; read-out: IC50 (uM), HCT116 (Colon Cancer), 384well CTG 3 days treatment −2
  IC50: > 50 µM
LN229; 96 well Thy 2 days treatment
  IC50: > 50 µM
LN229; 96 well Tye 1 day treatment
  IC50: > 50 µM
PANC-1
  IC50 (uM), PANC-1 (Pancreatic C): N.E.
PC3 [6]; read-out: IC50 (uM), PC3 (Prostate C), Table 6
  IC50: > 50 µM
PC3 [6]; read-out: IC50 (uM), PC3 (Prostrate Cancer), 96 well CTG 1 day treatment
  IC50: > 50 µM
PC3 [6]; read-out: IC50 (uM), PC3 (Prostrate Cancer), 96 well CTG 2 days treatment
  IC50: > 50 µM
PC3 [6]; read-out: IC50 (uM), PC3 (Prostrate Cancer), 384well CTG 3 days treatment −1
  IC50: > 50 µM
U118
  IC50: > 50 µM
HT29 [7]; 96 well Thy 2 days treatment
  IC50: > 50 µM
HT29 [7]; 96 well Tye 1 day treatment
  IC50: > 50 µM
LN-229; read-out: IC50 (uM), LN229 (CNS Cancer), 96 well CTG 1 day treatment
  IC50: > 50 µM
LN-229; read-out: IC50 (uM), LN229 (CNS Cancer), 96 well CTG 2 days treatment
  IC50: > 50 µM
LN-229; read-out: IC50 (uM), LN229 (CNS Cancer), 384well CTG 3 days treatment −1
  IC50: > 50 µM
LN-229; read-out: IC50 (uM), LN-229 (CNS), Table 6
  IC50: > 50 µM
HEP3B [8]; 96 well Thy 2 days treatment
  IC50: 2.35 µM
HEP3B [8]; 96 well Tye 1 day treatment
  IC50: 2.4 µM
MDAMB231
  IC50 (uM), MDAMB231 (Breast C): N.E.
HT29 [9]; read-out: IC50 (uM), HT29 (Colon C), Table 6
  IC50: > 50 µM
HT29 [9]; read-out: IC50 (uM), HT29 (Colon Cancer), 96 well CTG 1 day treatment
  IC50: > 50 µM
HT29 [9]; read-out: IC50 (uM), HT29 (Colon Cancer), 96 well CTG 2 days treatment
  IC50: > 50 µM
HT29 [9]; read-out: IC50 (uM), HT29 (Colon Cancer), 384well CTG 3 days treatment −1
  IC50: > 50 µM
PC3 [10]; 96 well Thy 2 days treatment
  IC50: > 50 µM
PC3 [10]; 96 well Tye 1 day treatment
  IC50: > 50 µM
CAPAN
  IC50 (uM), CAPAN (Pancreatic C): N.E.
MCF7
  IC50 (uM), MCF7 (Breast C): N.E.
GL261
  IC50 (uM), GL261 (CNS): N.E.?
H460; read-out: IC50 (uM), H460 (NSCLC), Table 6
  IC50: > 50 µM
H460; read-out: IC50 (uM), NCIH460 (NSCLC), 96 well CTG 1 day treatment
  IC50: > 50 µM
H460; read-out: IC50 (uM), NCIH460 (NSCLC), 96 well CTG 2 days treatment
  IC50: > 50 µM
H460; read-out: IC50 (uM), NCIH460 (NSCLC), 384well CTG 3 days treatment −1
  IC50: > 50 µM
H460; read-out: IC50 (uM), NCIH460 (NSCLC), 384well CTG 3 days treatment −2
  IC50: > 50 µM
HCT116 [11]; 96 well Thy 2 days treatment
  IC50: > 50 µM
HCT116 [11]; 96 well Tye 1 day treatment
  IC50: > 50 µM
NCIH460; 96 well Thy 2 days treatment
  IC50: > 50 µM
NCIH460; 96 well Tye 1 day treatment
  IC50: > 50 µM
HEPG2
  IC50 (uM), HEPG2 (Liver C): N.E.
A549
  IC50: > 50 µM
HEP3B [12]; read-out: IC50 (uM), HEP3B (Liver C), Table 6
  IC50: > 50 µM
HEP3B [12]; read-out: IC50 (uM), HEP3B (Liver Cancer), 96 well CTG 1 day treatment
  IC50: > 50 µM
HEP3B [12]; read-out: IC50 (uM), HEP3B (Liver Cancer), 96 well CTG 2 days treatment
  IC50: > 50 µM
HEP3B [12]; read-out: IC50 (uM), HEP3B (Liver Cancer), 384well CTG 3 days treatment −1
  IC50: > 50 µM
HEP3B [12]; read-out: IC50 (uM), HEP3B (Liver Cancer), 384well CTG 3 days treatment −2
  IC50: > 50 µM
LN-18
  IC50 (uM), LN-18 (CNS): N.E.?
U87
  IC50 (uM), U87 (CNS): N.E.
U251
  IC50 (uM), U251 (CNS): N.E.
Du-145
  IC50: > 50 µM
A172
  IC50 (uM), A172 (CNS): N.E.?
